Measurements reported in patent US5652250A, “N-substituted β-aryl- and β-heteroaryl-α-cyanoacrylamide derivatives and process for their preparation” (Pharmacia S.p.A., priority 1994, dated 1997).

Key:
[1] = biological target: p45 v-abl tyrosine kinase; test: p45 v-abl Kinase Assay ((Val^5)-Angiotensin II phosphorylation); assay type: biochemical, Abelson murine leukemia virus; details: (Val^5)-Angiotensin II 2 mM, ATP 50 μM, pH 8.0, 30° C., read-out: Inhibition of p45 v-abl kinase IC50
Experimental: The enzyme used in our test was the p45 v-abl tyrosine kinase which represents the catalytic domain of the Abelson tyrosine kinase (isolated from the Abelson murine leukemia virus). The p45 v-abl kinase was produced and isolated as described by Wang et al. in J. Biol. Chem. 260, 64 (1985) and by Ferguson et al. in J. Biol. Chem. 260, 3652 (1985) and in Biochem. J. 257, 321 (1989).
(Val^5)-Angiotensin II phosphorylation was performed by incubation with 40 ng of purified abl-kinase and (γ^32 P)-ATP, in 50 μl of buffer containing Tris-HCl 25 mM, pH 8.0, MgCl2 10 mM and dithiothreitol 0.1 mM (kinase buffer). The reaction mixture was incubated for the indicated time at 30° C. and the reaction stopped by adding 50 μl of 5% trichloroacetic acid. After a brief incubation on ice, tubes were centrifuged. The supernatants were spotted on phosphocellulose paper squares (Whatman P-81) and washed extensively in acetic acid. The radioactivity bound to dried phosphocellulose squares was measured in a liquid scintillation counter. IC50 values were calculated from triplicate determinations of each experimental point. Each inhibitor was tested at concentrations ranging from […] in the presence of fixed concentrations of peptide (2 mM) and ATP (50 μM).

[2] = system: K562 cells; test: K562 Cell Growth Inhibition Assay; assay type: cell-based; details: K562 human myelogenous leukemia cells, 72 h
Experimental: K562 cells, a human myelogenous leukemia cell line, were seeded into a 24 wells tissue culture plate (Falcon 3047) (10000/well) in the presence of increasing concentrations of the compounds. After 72 h, cells were harvested and were counted using a cell counter (Coulter Counter--ZM). The percent of inhibition was evaluated in respect to the untreated control cells.

N#CC(=Cc1ccc(O)c2ncccc12)C(=O)Nc1ccccc1 [N-phenyl β-(8-hydroxy-5-quinolyl)-α-cyanoacrylamide]
IC50 [1]: 3.4 µM
IC50 [2]: 0.66 µM
